According to ChEMBL document CHEMBL3085709, “Modulators of the Sphingosine 1-phosphate receptor 1” (Bioorg Med Chem Lett, 2013):

Assays:
[1] = Half life of the compound; type: physicochemical
Rattus norvegicus [2] = experiment: Immunomodulatory activity in rat assessed as decrease in peripheral blood lymphocyte count at 100 mg/kg, po after 12 hrs; type: functional; parameters: scale not given: the % may be the effect or the level left
Mus musculus = experiment: Immunomodulatory activity in po dosed mouse assessed as decrease in peripheral blood lymphocyte count after 3 hrs; type: functional
[3] = biological target: Sphingosine 1-phosphate receptor 1 (Homo sapiens, UniProt P21453); experiment: Antagonist activity at human S1P1 receptor expressed in HEK293 cells assessed as inhibition of S1P-induced decrease in cAMP formation by [35S]GTPgammaS binding assay; type: functional, cell-based
Chain of Sphingosine 1-phosphate receptor 1 (P21453 whole entry): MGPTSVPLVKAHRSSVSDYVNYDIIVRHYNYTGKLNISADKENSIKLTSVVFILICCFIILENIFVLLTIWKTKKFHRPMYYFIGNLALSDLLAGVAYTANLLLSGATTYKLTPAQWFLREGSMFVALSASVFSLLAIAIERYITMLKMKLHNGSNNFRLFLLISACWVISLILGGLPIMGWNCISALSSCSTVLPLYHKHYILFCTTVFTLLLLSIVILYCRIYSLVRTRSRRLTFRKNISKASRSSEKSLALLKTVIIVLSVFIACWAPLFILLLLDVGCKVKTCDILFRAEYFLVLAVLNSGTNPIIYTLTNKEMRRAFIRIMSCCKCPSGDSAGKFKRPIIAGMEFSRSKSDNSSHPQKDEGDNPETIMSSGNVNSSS

[4] = biological target: T1, Sphingosine 1-phosphate receptor 3 (Homo sapiens, UniProt Q99500); experiment: Inhibition of S1P3 receptor (unknown origin)
T1 sequence (Q99500 whole entry): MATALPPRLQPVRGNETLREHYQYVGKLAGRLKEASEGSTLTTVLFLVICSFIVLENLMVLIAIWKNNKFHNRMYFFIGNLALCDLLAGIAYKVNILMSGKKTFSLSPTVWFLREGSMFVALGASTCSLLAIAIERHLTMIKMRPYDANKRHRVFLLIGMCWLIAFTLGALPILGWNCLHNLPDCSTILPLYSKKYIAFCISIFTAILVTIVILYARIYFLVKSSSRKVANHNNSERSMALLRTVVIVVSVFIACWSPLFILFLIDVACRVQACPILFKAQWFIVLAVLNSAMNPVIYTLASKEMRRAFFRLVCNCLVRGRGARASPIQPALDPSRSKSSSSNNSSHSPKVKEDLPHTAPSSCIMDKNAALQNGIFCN

[5] = biological target: T2, Sphingosine 1-phosphate receptor 4 (Homo sapiens, UniProt O95977); experiment: Inhibition of S1P4 receptor (unknown origin)
T2 sequence (O95977 whole entry): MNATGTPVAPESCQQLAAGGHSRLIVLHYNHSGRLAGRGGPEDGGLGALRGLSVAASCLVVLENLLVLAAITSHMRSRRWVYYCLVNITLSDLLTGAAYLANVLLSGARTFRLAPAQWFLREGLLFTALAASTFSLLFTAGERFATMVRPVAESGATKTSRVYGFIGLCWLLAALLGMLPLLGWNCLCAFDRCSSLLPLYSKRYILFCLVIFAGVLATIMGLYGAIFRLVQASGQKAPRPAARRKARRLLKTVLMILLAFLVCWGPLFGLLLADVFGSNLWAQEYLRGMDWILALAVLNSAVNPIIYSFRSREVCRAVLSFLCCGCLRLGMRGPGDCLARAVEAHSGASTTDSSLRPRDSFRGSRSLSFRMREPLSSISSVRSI

[6] = biological target: T3, Sphingosine 1-phosphate receptor 5 (Homo sapiens, UniProt Q9H228); experiment: Inhibition of S1P5 receptor (unknown origin)
T3 sequence (Q9H228 whole entry): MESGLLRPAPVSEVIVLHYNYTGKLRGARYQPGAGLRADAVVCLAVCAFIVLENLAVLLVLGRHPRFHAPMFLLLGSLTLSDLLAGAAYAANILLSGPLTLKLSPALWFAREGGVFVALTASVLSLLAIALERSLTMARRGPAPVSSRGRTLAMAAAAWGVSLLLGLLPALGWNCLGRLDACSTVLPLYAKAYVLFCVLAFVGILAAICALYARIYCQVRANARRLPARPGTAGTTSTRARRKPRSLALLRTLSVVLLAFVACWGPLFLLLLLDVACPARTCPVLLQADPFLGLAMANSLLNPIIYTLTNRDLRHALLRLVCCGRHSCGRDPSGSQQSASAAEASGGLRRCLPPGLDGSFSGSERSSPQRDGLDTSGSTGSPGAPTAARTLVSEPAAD

Rattus norvegicus [7] = experiment: Immunomodulatory activity in rat assessed as decrease in peripheral blood lymphocyte count at 50 mg/kg, po after 1 to 8 hrs; type: functional; parameters: scale not given: the % may be the effect or the level left
[8] = biological target: T1, Sphingosine 1-phosphate receptor 3; experiment: Antagonist activity at human S1P3 receptor expressed in CHO cells assessed as inhibition of agonist-induced calcium mobilization preincubated for 20 mins by Fluo-4/FLIPR method; type: functional, cell-based
[9] = biological target: Sphingosine 1-phosphate receptor 2 (Homo sapiens, UniProt O95136); experiment: Antagonist activity at human S1P2 receptor expressed in CHO cells assessed as inhibition of agonist-induced calcium mobilization preincubated for 20 mins by Fluo-4/FLIPR method; type: functional, cell-based
Chain of Sphingosine 1-phosphate receptor 2 (O95136 whole entry): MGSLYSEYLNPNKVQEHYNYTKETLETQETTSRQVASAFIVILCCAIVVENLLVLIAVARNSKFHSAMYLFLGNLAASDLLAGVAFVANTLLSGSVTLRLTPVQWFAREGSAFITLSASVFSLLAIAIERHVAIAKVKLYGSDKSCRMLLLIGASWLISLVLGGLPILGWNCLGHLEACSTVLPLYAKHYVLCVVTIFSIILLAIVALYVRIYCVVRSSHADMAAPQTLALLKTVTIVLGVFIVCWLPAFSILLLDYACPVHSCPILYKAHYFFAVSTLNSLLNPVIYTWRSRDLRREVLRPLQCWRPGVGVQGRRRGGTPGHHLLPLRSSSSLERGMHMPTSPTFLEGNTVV

[10] = biological target: T2, Sphingosine 1-phosphate receptor 4; experiment: Antagonist activity at human S1P4 receptor expressed in CHO cells assessed as inhibition of agonist-induced calcium mobilization preincubated for 20 mins by Fluo-4/FLIPR method; type: functional, cell-based
Rattus norvegicus [11] = experiment: Immunomodulatory activity in rat assessed as decrease in peripheral blood lymphocyte count at 30 mg/kg, po after 14 to 24 hrs; type: functional; parameters: scale not given: the % may be the effect or the level left
[12] = biological target: T2, Sphingosine 1-phosphate receptor 4; experiment: Agonist activity at S1P4 receptor (unknown origin)
[13] = biological target: T3, Sphingosine 1-phosphate receptor 5; experiment: Antagonist activity at human S1P5 receptor expressed in CHO cells after 120 mins by [35S]GTPgammaS binding assay; type: functional, cell-based
Rattus norvegicus [14] = experiment: Immunomodulatory activity in rat assessed as decrease in peripheral blood lymphocyte count at 30 mg/kg, po after 48 hrs; type: functional; parameters: scale not given: the % may be the effect or the level left
[15] = biological target: T3, Sphingosine 1-phosphate receptor 5; experiment: Agonist activity at S1P5 receptor (unknown origin)
Homo sapiens [16] = experiment: Immunomodulatory activity in multiple sclerosis patient assessed as decrease in peripheral blood lymphocyte count at 1.25 mg/kg, po; type: functional; parameters: scale not given: the % may be the effect or the level left
[17] = biological target: T1, Sphingosine 1-phosphate receptor 3; experiment: Agonist activity at S1P3 receptor (unknown origin)
Homo sapiens [18] = experiment: Immunomodulatory activity in multiple sclerosis patient assessed as decrease in peripheral blood lymphocyte count at 5 mg/kg, po; type: functional; parameters: scale not given: the % may be the effect or the level left
[19] = Half life in human; type: ADME, organism-based; details: in vivo
[20] = biological target: T2, Sphingosine 1-phosphate receptor 4; experiment: Agonist activity at human S1P4 receptor expressed in CHO cells by [35S]GTPgammaS binding assay; type: functional, cell-based
[21] = biological target: T3, Sphingosine 1-phosphate receptor 5; experiment: Agonist activity at human S1P5 receptor expressed in CHO cells by [35S]GTPgammaS binding assay; type: functional, cell-based

Cc1ccc(CCCC(=O)c2ccc(CC[C@@](C)(N)CO)n2C)cc1
half-life [1]: 168 h

Cc1cc(S(=O)(=O)Nc2cccc(-c3cc(C)c(C(=O)N[C@@H](C)C(=O)O)c(C)c3)c2)c(C)cc1Cl
Activity (Rattus norvegicus [2]): 75%

O=C(O)C1CN(Cc2ccc(-c3noc(-c4cc(-c5ccccc5)c(C(F)(F)F)s4)n3)cc2)C1
ED50 (Mus musculus): 0.07 mg/kg

CCn1c(OC)nnc1[C@@H](C)NS(=O)(=O)c1ccc(F)c(Cl)c1
IC50 [3]: 383 nM
Ki [3]: 249 nM
Ki [4]: 4880 nM
Ki [5]: > 10000 nM
Ki [6]: > 10000 nM
Activity (Rattus norvegicus [7]): >70%

Cc1cc([C@@H](C)Nc2cccc(-c3cc(C)c(C(=O)N[C@@H](C)C(=O)O)c(C)c3)c2)ccc1Cl
IC50 [8]: > 10000 nM
IC50 [9]: > 10000 nM
IC50 [10]: > 10000 nM
Activity (Rattus norvegicus [11]): 75%
EC50 [12]: 245 nM
IC50 [13]: > 10000 nM
Activity (Rattus norvegicus [14]): 60%

CCCCCCCCc1ccc(CCC(N)(CO)CO)cc1 [FINGOLIMOD]
EC50 [15]: 0.3 nM
Activity (Homo sapiens [16]): 20%
EC50 [17]: 3 nM
Activity (Homo sapiens [18]): 20%
half-life [19]: 216 h
EC50 [12]: 0.3 nM

CCC/N=C1\S/C(=C\c2ccc(OC[C@H](O)CO)c(Cl)c2)C(=O)N1c1ccccc1C [PONESIMOD]
half-life [1]: 30 h

CCc1cc(/C(C)=N/OCc2ccc(C3CCCCC3)c(C(F)(F)F)c2)ccc1CN1CC(C(=O)O)C1 [SIPONIMOD]
EC50 [20]: 750 nM
half-life [19]: 30 h
EC50 [21]: 0.98 nM
